Reference: ChEMBL document CHEMBL1201862, “PubChem BioAssay data set” (2004)
Calls of active or inactive are those of the source.

Legend:
[1] = growth suppression of beta-catenin-knockout colon cells, dose response, cell-based, HCT116, human colon tumor (AID 1045); format: functional;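 further: HCT116 colon tumor cells with beta catenin knocked out; cells exposed to compound for 60 hours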
[2] = growth suppression of PTEN-null colon cells, dose response, cell-based, HCT116 PTEN knockout (AID 1047); format: functional;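 further: HCT116 colon tumor cells with PTEN knocked out; cells exposed to compound for 60 hours before readout; potency for loss of cell viability measured by luminescence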
H4 = experiment: Luminescence Cell-Based Dose Response HTS to Identify Activators of 5'UTR Stem-Loop Driven Prion Protein mRNA Translation in H4 Neuroglioblastoma Cells. [Related pubchem assays: 1829 (Project Summary), 1814 (Primary HTS)]; format: functional; settings: Homo sapiens
[3] = Luminescence Cell-Based Dose Response HTS to Identify Activators of Luciferase Translation or Activity in H4 […] Cells. [Related pubchem assays: 1829 (Project Summary), 1814 (Primary HTS)]; format: functional
[4] = Luminescence Cell-Based Dose Confirmation HTS to Identify Activators of 5'UTR Stem-Loop Driven Alpha-Synuclein mRNA Translation in H4 Neuroglioblastoma Cells. [Related pubchem assays: 1829 (Project Summary), 1814 (Primary HTS)]; format: functional
[5] = Luminescence Cell-Based Dose Confirmation HTS to Identify Inhibitors of Platelet Dense Granule Release. [Related pubchem assays: 1663 (Primary HTS), 1678 (Summary of Project)]; format: functional
[6] = biological target: Luciferin 4-monooxygenase (Photinus pyralis, UniProt P08659); experiment: firefly luciferase enzyme inhibitors, dose response, biochemical, luminescence (AID 1891)
Sequence of Luciferin 4-monooxygenase (P08659 whole entry, the tested form may be a part): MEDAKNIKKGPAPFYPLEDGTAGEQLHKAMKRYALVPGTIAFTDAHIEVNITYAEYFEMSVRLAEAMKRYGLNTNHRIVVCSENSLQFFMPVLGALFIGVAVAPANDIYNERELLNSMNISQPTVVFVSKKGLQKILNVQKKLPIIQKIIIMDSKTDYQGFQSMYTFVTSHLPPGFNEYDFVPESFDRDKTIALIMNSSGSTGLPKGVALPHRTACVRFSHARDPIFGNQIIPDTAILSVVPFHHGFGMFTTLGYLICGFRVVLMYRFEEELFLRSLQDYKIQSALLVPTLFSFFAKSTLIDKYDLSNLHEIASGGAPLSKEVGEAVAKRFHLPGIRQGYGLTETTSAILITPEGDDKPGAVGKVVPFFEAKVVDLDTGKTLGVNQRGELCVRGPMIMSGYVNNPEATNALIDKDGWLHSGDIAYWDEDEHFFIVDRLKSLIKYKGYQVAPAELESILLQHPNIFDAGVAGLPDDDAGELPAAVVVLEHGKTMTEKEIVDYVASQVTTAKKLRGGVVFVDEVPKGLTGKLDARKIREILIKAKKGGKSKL

[7] = biological target: T1, Carboxy-terminal domain RNA polymerase II polypeptide A small phosphatase 1 (Homo sapiens, UniProt Q9GZU7); experiment: inhibitors of CTDSP1, concentration-response testing, biochemical assay, absorbance-based, actives from ultra-high-throughput screening (AID 540297); format: functional
T1 sequence (Q9GZU7 whole entry): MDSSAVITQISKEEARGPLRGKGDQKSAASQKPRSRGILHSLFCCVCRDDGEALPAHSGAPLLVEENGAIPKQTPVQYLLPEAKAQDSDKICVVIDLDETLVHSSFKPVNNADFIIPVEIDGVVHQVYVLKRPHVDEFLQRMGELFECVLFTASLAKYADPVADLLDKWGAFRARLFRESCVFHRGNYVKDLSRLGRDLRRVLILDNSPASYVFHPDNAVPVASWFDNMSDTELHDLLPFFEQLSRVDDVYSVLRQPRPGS

[8] = biological target: T2, High affinity choline transporter 1 (Homo sapiens, UniProt Q9GZV3); experiment: CHT inhibitors, dose response, cell-based, 5-point CRC, membrane potential dye (AID 504840); format: functional
T2 sequence (Q9GZV3 whole entry): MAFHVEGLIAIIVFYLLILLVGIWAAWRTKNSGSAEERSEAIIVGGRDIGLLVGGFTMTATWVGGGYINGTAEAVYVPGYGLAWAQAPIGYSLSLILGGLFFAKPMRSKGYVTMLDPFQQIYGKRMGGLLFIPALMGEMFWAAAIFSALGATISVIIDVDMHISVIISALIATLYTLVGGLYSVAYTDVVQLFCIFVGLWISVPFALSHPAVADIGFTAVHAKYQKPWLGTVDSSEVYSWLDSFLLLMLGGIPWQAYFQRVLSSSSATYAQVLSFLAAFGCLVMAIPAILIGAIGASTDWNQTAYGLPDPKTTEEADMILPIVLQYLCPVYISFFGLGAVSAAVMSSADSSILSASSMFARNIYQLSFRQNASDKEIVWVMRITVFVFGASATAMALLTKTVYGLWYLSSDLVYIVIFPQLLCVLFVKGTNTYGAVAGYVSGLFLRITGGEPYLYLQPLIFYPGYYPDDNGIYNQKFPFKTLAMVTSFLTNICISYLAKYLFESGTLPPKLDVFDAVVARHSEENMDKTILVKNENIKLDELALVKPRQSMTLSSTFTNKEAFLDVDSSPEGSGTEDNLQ

INS1 = experiment: beta cell apoptosis inhibitors, cytokine rescue, dose response, luminescence, retest (AID 449756); format: functional, cell-based; settings: Rattus norvegicus;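 further: cell death triggered by IL-1 beta plus TNF-alpha plus IFN-gamma mixture; protective hits raise ATP signal compared with cytokine alone wells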
[9] = NIH-3T3 fibroblast cytotoxicity, dose response, cytotoxicity control, cell-based, fluorescence, Alamar Blue, secondary assay (AID 2327); format: functional;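 further: NIH-3T3 mouse fibroblasts cultured with fluconazole at 8 µg/mL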
[10] = C. albicans growth with fluconazole, confirmation, fluorescence, retest (AID 2467); format: functional, cell-based
[11] = Luminescence Cell-Based Dose Retest to Confirm Inhibitors of Cancer Stem Cells. [Related pubchem assays (depositor defined):AID2717, AID2721]; format: functional; settings: Homo sapiens
[12] = P. falciparum Dd2 growth inhibitors, dose response, SYBR Green, cherry-picked samples (AID 1159567); format: functional, cell-based

## CC1=NN(c2ccccc2)C(=O)/C1=C/c1cc2cc(C)ccc2nc1N1CCCCC1
[1]
  EC50: 25.2 µM (active)
[2]
  EC50: 17.8 µM (active)
H4
  EC50: > 120 µM (inconclusive)
[3]
  EC50: 17.1 µM (active)
[4]
  EC50: 8.69 µM (active)

## Cc1ccc(C)c(N2CCN(S(=O)(=O)c3ccc4c(c3)OCCO4)CC2)c1
[5]
  EC50: > 112 µM (not active)
[6]
  EC50: > 112 µM (not active)

## Cc1cc(C)c(C)c(S(=O)(=O)N[C@@H](C)C(=O)OCc2cc(=O)n3cc(Br)ccc3n2)c1C
[7]
  IC50: 7.42 µM (active)

## CC(C)C(=O)Nc1ncc2c(n1)CC(c1cccs1)CC2=O (centres undefined)
[5]
  EC50: > 112 µM (not active)
[6]
  EC50: > 112 µM (not active)

## COc1cc(C(=O)Nc2ccc(Br)cc2C(=O)c2ccccc2Cl)cc(OC)c1OC
[1]
  EC50: 29 µM (active)
[2]
  EC50: 153 µM (active)

## CCOC(=O)c1cccc(Nc2ncnc3ccccc23)c1
[8]
  IC50: 14.5 µM (active)

## O=c1c2ccccc2nc(SCc2ccncc2)n1CC1CCCO1 (centres undefined)
[8]
  IC50: 12.9 µM (active)

## C/C(=N\NC(=O)C(C)n1nc(C)c([N+](=O)[O-])c1C)c1ccccc1O (centres undefined)
INS1
  AC50: 1.93 µM (active)

## Cc1nn(-c2ccc(F)cc2)c(Cl)c1/C=N/NC(=O)c1cccc(S(=O)(=O)N2CCCC2)c1
[7]
  IC50: 10.7 µM (active)

## COc1ccc(C/C(O)=C(\C#N)c2nc3ccccc3s2)cc1
[9]
  EC50: 39.5 µM (active)
[8]
  IC50: 0.724 µM (active)
[10]
  EC50: 0.405 µM (active)

## CCn1/c(=N/C(=O)c2ccc(S(=O)(=O)N3CCOCC3)cc2)sc2cccc(OC)c21
INS1
  AC50: 5.66 µM (active)

## O=C(N/N=C/c1ccc2c(c1)OCO2)c1ccc(COCC(F)(F)C(F)F)cc1
[11]
  AC50: 1.12 µM (active)
[7]
  IC50: 9.06 µM (active)

## O=C(c1ccccn1)N1CC2(C1)[C@@H](c1ccccc1)[C@H](CO)N2Cc1ccc(Cl)cc1
[12]
  AC50: 4.6 µM (active)

## COc1ccc(NC(=O)N2CCC3(CC2)CN(C(=O)C2CCC2)[C@@H](CO)c2c3c3ccc(OC)cc3n2C)cc1
[12]
  AC50: 6.04 µM (active)
